Values of other authors as cited in patent US20160286794A1, “PLANT DISEASE CONTROL AGENT AND PLANT DISEASE CONTROL METHOD” (UBE MATERIALS INDUSTRIES, LTD., priority 2013, published 2016).

Settings: Hydrophile-Lipophile Balance of the nonionic surfactant

| HLB | Substance |
| --- | --- |
| 16.7 | polyethylene glycol sorbitan monolaurate [Tween 20] |
| 15.0 | polyethylene glycol sorbitan monooleate [Tween 80] |

More lines, now with the values behind:

| Substance | HLB |
| --- | --- |
| nonylphenyl polyethylene glycol [Nodinet P-40] | 13.0 |
| octylphenol polyethylene glycol ether [Triton X-100] | 13.5 |
| polyoxyethylene branched nonyl cyclohexyl ether [Triton N-101] | 13.5 |
